Holding throughout (format): cell-based
What all share (details): 16 h treatment, EGFR degradation by HTRF
For orientation: Time-resolved FRET reads energy transfer from a long-lived donor to a nearby acceptor.

For one experiment, the target named is T1, EGFR LTC (Homo sapiens, UniProt P00533, C797S/L858R/T790M).
T1 construct: expressed in transfected cells; host or cells: BaF3
As to the kind of experiment: Cell Degradation 3: EGFR degradation in BaF3 cells (LTC), HTRF assay. In short, it runs like this: (§1)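 BaF3 cells expressing EGFR (LTC triple mutant C797S/L858R/T790M or DTC) exposed to compounds for 16 h, 8 doses from 4-fold dilution, 0.2% DMSO. Residual EGFR quantified by HTRF in lysates (triple mutant lysate diluted 1:1); DC50 from four-parameter logistic fit.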

The next experiment relates to EGFR DTC. As to the kind of experiment: Cell Degradation 3: EGFR degradation in BaF3 cells (DTC), HTRF assay. In short, it runs like this: as §1
Experiment [1] has as its target T2, EGFR (Homo sapiens, UniProt P00533, DEL746-750).
T2 construct: endogenous in cells; host or cells: HCC827
As to the kind of experiment: Cell Degradation 2: EGFR degradation in HCC827 cells, HTRF assay. In short, it runs like this: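 Compound-treated HCC827 cells were lysed after 16 h and EGFR measured by HTRF (337 nm excitation, 665/620 nm emission) after overnight antibody incubation at room temperature. DC50 came from a four-parameter fit of percent inhibition against compound concentration.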

The target in experiment [2] is T3, EGFR (Homo sapiens, UniProt P00533, L858R/T790M).
T3 construct: endogenous in cells; host or cells: H1975
As to the kind of experiment: Cell Degradation 1: EGFR degradation in H1975 cells, HTRF assay. In short, it runs like this:
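H1975 cells treated with compound for 16 h, lysed 1 h at room temperature. EGFR measured by HTRF after overnight antibody incubation (665/620 nm). DC50 from four-parameter logistic fit of percent inhibition against concentration.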

Usually DC50 stands for the concentration giving 50% degradation. The low end stands for a more potent degrader, the high end for a less potent degrader.

T3 sequence (P00533 25-1210 T790M/L858R): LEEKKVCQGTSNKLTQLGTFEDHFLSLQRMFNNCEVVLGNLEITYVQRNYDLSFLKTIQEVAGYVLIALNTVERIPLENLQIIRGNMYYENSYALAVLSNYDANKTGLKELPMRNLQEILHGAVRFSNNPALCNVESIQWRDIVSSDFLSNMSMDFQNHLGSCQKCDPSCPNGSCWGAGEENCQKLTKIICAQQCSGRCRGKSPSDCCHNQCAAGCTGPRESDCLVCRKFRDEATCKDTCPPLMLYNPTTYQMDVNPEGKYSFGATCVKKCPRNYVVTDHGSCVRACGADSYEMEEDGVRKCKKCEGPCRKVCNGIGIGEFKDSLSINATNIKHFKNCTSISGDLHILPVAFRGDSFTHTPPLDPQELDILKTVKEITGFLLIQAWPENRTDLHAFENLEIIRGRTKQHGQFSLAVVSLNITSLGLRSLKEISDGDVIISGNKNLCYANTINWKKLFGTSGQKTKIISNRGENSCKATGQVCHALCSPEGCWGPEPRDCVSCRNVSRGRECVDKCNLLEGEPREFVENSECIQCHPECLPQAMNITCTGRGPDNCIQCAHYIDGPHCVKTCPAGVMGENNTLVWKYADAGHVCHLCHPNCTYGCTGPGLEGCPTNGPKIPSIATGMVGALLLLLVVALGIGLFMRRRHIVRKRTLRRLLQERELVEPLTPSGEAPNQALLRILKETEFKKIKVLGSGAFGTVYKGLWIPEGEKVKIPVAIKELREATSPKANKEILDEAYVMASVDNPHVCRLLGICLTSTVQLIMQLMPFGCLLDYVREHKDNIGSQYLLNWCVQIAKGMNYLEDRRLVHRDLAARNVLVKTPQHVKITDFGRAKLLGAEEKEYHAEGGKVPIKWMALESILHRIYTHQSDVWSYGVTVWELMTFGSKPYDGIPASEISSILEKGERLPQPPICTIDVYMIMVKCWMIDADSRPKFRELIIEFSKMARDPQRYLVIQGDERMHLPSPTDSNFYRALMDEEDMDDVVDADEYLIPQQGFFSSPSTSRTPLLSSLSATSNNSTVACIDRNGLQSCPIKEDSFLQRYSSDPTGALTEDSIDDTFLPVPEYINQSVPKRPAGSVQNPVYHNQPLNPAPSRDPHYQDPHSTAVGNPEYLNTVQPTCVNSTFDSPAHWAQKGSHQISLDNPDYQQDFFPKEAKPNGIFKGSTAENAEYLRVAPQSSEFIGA
T1 sequence (P00533 25-1210 T790M/C797S/L858R): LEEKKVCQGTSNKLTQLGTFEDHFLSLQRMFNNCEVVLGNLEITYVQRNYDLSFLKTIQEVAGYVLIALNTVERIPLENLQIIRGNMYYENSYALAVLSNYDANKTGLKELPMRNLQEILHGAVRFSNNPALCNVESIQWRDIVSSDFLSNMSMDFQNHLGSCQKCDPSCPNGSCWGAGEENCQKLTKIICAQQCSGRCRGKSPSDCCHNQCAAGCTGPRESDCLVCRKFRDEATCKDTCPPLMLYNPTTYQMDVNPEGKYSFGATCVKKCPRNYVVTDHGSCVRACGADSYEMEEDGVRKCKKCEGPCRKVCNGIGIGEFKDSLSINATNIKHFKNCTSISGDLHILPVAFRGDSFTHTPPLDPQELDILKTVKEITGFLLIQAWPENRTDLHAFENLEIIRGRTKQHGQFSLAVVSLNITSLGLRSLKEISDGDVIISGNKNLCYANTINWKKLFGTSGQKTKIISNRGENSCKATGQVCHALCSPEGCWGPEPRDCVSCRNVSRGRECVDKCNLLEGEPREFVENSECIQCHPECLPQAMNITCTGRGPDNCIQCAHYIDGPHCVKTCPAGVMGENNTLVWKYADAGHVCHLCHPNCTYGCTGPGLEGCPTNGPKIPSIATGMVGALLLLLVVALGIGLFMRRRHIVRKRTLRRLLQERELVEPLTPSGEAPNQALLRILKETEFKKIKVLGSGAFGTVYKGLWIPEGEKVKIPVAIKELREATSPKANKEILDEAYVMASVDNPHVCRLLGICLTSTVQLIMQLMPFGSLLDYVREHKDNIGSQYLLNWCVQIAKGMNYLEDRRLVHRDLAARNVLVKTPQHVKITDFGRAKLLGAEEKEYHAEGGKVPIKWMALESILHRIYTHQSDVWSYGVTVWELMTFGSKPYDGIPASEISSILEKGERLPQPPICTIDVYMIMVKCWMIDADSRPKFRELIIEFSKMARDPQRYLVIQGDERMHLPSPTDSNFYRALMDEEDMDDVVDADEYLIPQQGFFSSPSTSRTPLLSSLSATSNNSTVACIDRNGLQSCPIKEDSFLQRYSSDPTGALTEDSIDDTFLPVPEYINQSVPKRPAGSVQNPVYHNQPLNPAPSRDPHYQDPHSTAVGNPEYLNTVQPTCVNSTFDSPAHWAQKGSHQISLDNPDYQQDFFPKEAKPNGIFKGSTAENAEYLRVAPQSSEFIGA
T2 sequence (P00533 with tags, fused parts or gaps DEL746-750): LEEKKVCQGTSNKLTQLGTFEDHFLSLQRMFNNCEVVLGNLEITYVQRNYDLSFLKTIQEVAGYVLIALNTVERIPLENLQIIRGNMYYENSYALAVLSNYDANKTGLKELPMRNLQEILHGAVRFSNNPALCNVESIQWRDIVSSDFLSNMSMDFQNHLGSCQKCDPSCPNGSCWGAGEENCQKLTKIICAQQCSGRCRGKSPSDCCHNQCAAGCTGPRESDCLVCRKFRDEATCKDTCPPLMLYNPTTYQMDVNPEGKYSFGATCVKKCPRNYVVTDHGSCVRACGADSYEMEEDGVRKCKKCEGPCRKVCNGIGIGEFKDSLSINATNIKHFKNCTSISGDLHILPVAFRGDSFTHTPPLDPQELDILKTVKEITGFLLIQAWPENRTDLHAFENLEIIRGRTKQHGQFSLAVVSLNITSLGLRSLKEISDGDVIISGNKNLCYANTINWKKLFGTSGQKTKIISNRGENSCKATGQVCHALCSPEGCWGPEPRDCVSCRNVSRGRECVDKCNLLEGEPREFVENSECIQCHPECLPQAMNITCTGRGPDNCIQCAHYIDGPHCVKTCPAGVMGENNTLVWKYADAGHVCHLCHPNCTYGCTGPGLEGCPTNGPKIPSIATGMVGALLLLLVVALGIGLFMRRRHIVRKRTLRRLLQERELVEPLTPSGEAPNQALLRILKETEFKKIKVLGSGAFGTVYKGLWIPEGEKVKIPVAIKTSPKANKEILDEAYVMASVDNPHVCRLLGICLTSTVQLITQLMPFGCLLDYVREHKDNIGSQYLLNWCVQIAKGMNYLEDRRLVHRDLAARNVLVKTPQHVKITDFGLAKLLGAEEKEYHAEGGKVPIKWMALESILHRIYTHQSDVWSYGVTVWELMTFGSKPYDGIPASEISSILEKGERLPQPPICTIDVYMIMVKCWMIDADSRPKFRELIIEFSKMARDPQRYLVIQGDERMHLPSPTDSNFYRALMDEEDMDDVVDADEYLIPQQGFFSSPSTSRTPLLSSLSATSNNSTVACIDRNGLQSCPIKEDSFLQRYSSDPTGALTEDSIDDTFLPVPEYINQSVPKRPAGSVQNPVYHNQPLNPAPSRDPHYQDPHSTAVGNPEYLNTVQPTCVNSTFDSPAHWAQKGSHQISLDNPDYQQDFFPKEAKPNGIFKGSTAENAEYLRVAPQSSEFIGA
T2 sequence (Q96SW2 whole entry partner): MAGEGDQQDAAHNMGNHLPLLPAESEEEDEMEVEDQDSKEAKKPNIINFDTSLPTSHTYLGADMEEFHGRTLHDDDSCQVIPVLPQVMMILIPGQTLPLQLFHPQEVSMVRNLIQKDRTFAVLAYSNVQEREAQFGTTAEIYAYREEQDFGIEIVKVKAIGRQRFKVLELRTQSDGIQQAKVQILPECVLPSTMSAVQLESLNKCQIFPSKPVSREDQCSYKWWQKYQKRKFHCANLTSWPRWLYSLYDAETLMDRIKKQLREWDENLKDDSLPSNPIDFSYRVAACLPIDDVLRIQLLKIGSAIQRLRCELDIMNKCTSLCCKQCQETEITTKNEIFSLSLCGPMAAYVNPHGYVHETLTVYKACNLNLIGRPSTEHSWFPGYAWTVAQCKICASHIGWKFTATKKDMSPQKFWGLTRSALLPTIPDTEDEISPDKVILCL

Regarding `CS(=O)(=O)N1CCc2cccc(Nc3nc(Nc4ccc(N5CCC(N6CCN(CCc7ccc(C8CCC(=O)NC8=O)c(F)c7)CC6)CC5)c(F)c4)nc4[nH]ccc34)c21` (centres unmarked) [Example 3, 3-(2-fluoro-4-(2-(4-(1-(2-fluoro-4-((4-((1-(methylsulfonyl)indolin-7-yl)amino)-7H-pyrrolo[2,3-d]pyrimidin-2-yl)amino)phenyl)piperidin-4-yl)piperazin-1-yl)ethyl)phenyl)piperidine-2,6-dione], the DC50 on EGFR LTC came out at 19.9 nM; in the experiment on EGFR DTC, 11.6 nM; on EGFR [1], 0.0198 µM; at EGFR [2], 0.0095 µM.
The corresponding values for `CS(=O)(=O)N1CCc2cccc(Nc3nc(Nc4ccc(N5CCC(N6CCN(CCC7CCN(c8ccc(C9CCC(=O)NC9=O)cc8)CC7)CC6)CC5)c(F)c4)nc4[nH]ccc34)c21` (centres unmarked) [Example 8, 3-(4-(4-(2-(4-(1-(2-fluoro-4-((4-((1-(methylsulfonyl)indolin-7-yl)amino)-7H-pyrrolo[2,3-d]pyrimidin-2-yl)amino)phenyl)piperidin-4-yl)piperazin-1-yl)ethyl)piperidin-1-yl)phenyl)piperidine-2,6-dione] are 8.4 nM, 13.4 nM, 0.0127 µM and 0.0091 µM.
The corresponding values for `CS(=O)(=O)N1CCc2cccc(Nc3nc(Nc4ccc(N5CCC(N6CCN(C(=O)CCN7CCN(c8ccc9c(c8)C(=O)N(C8CCC(=O)NC8=O)C9=O)CC7)CC6)CC5)c(F)c4)nc4[nH]ccc34)c21` (centres unmarked) [Example 15, 2-(2,6-dioxopiperidin-3-yl)-5-(4-(3-(4-(1-(2-fluoro-4-((4-((1-(methylsulfonyl)indolin-7-yl)amino)-7H-pyrrolo[2,3-d]pyrimidin-2-yl)amino)phenyl)piperidin-4-yl)piperazin-1-yl)-3-oxopropyl)piperazin-1-yl)isoindoline-1,3-dione] are 68.3 nM, 35.8 nM, 0.0092 µM and 0.01 µM.
The corresponding values for `CS(=O)(=O)N1CCc2cccc(Nc3nc(Nc4ccc(N5CCC(N6CCN(CCCC7CN(c8ccc9c(c8)C(=O)N(C8CCC(=O)NC8=O)C9=O)C7)CC6)CC5)c(F)c4)nc4[nH]ccc34)c21` (centres unmarked) [Example 19, 2-(2,6-dioxopiperidin-3-yl)-5-(3-(3-(4-(1-(2-fluoro-4-((4-((1-(methylsulfonyl)indolin-7-yl)amino)-7H-pyrrolo[2,3-d]pyrimidin-2-yl)amino)phenyl)piperidin-4-yl)piperazin-1-yl)propyl)azetidin-1-yl)isoindoline-1,3-dione] are 24.2 nM, 16.7 nM, 0.0108 µM and 0.00603 µM.
For the molecule `COc1cc(N2CCC(N3CCN(CCc4ccc(C5CCC(=O)NC5=O)cc4)CC3)CC2)ccc1Nc1ncc(Cl)c(Nc2cccc3c2N(S(C)(=O)=O)CC3)n1` (centres unmarked) [Example 34, 3-(4-(2-(4-(1-(4-((5-chloro-4-((1-(methylsulfonyl)indolin-7-yl)amino)pyrimidin-2-yl)amino)-3-methoxyphenyl)piperidin-4-yl)piperazin-1-yl)ethyl)phenyl)piperidine-2,6-dione], the DC50 on EGFR LTC worked out at 276 nM; in the experiment with EGFR DTC it was 38.2 nM; at EGFR [1] it was 0.0067 µM; at EGFR [2] it was 0.007 µM.
Consider `COc1cc(N2CCC(N3CCN(CCC4CCN(c5ccc(C6CCC(=O)NC6=O)cc5)CC4)CC3)CC2)ccc1Nc1ncc(Cl)c(Nc2cccc3c2N(S(C)(=O)=O)CC3)n1` (centres unmarked) [Example 35, 3-(4-(4-(2-(4-(1-(4-((5-chloro-4-((1-(methylsulfonyl)indolin-7-yl)amino)pyrimidin-2-yl)amino)-3-methoxyphenyl)piperidin-4-yl)piperazin-1-yl)ethyl)piperidin-1-yl)phenyl)piperidine-2,6-dione], for which the DC50 is 203 nM at EGFR LTC, 48.1 nM with EGFR DTC, 0.0084 µM at EGFR [1] and 0.0072 µM at EGFR [2].
For `COc1cc(N2CCC(N3CCN(CCC4CCN(c5ccc(C6CCC(=O)NC6=O)c(F)c5)CC4)CC3)CC2)ccc1Nc1ncc(Cl)c(Nc2cccc3c2N(S(C)(=O)=O)CC3)n1` (centres unmarked) [Example 36, 3-(4-(4-(2-(4-(1-(4-((5-chloro-4-((1-(methylsulfonyl)indolin-7-yl)amino)pyrimidin-2-yl)amino)-3-methoxyphenyl)piperidin-4-yl)piperazin-1-yl)ethyl)piperidin-1-yl)-2-fluorophenyl)piperidine-2,6-dione], the half-maximal degradation concentration (DC50) was 42.6 nM on EGFR LTC, 26.3 nM in the experiment with EGFR DTC, 0.0086 µM at EGFR [1] and 0.0155 µM on EGFR [2].
The corresponding values for `COc1cc(N2CCC(N3CCN(CCC4CCN(c5ccc6c(c5)C(=O)N(C5CCC(=O)NC5=O)C6=O)CC4)CC3)CC2)ccc1Nc1ncc(Cl)c(Nc2cccc3c2N(S(C)(=O)=O)CC3)n1` (centres unmarked) [Example 37, 5-(4-(2-(4-(1-(4-((5-chloro-4-((1-(methylsulfonyl)indolin-7-yl)amino)pyrimidin-2-yl)amino)-3-methoxyphenyl)piperidin-4-yl)piperazin-1-yl)ethyl)piperidin-1-yl)-2-(2,6-dioxopiperidin-3-yl)isoindoline-1,3-dione] are 43.1 nM, 16.7 nM, 0.0035 µM and 0.0038 µM.
The corresponding values for `COc1cc(N2CCN(C3CCN(CCc4ccc(C5CCC(=O)NC5=O)cc4)CC3)CC2)ccc1Nc1ncc(Cl)c(Nc2cccc3c2N(S(C)(=O)=O)CC3)n1` (centres unmarked) [Example 38, 3-(4-(2-(4-(4-(4-((5-chloro-4-((1-(methylsulfonyl)indolin-7-yl)amino)pyrimidin-2-yl)amino)-3-methoxyphenyl)piperazin-1-yl)piperidin-1-yl)ethyl)phenyl)piperidine-2,6-dione] are 230 nM, 176 nM, 0.0097 µM and 0.0098 µM.
Turning to `COc1cc(N2CCC(N3CCN(CCc4ccc(C5CCC(=O)NC5=O)cc4)CC3)CC2)c(C)cc1Nc1ncc(Br)c(Nc2cccc3c2N(S(C)(=O)=O)CC3)n1` (centres unmarked) [Example 39, 3-(4-(2-(4-(1-(4-((5-bromo-4-((1-(methylsulfonyl)indolin-7-yl)amino)pyrimidin-2-yl)amino)-5-methoxy-2-methylphenyl)piperidin-4-yl)piperazin-1-yl)ethyl)phenyl)piperidine-2,6-dione], the DC50 was 157 nM at EGFR LTC, 33.7 nM with EGFR DTC, 0.0136 µM at EGFR [1] and 0.0121 µM at EGFR [2].
The corresponding values for `CS(=O)(=O)N1CCc2cccc(Nc3nc(Nc4ccc(N5CCC(N6CCN(CCc7ccc(C8CCC(=O)NC8=O)cc7)CC6)CC5)c(F)c4)ncc3Cl)c21` (centres unmarked) [Example 45, 3-(4-(2-(4-(1-(4-((5-chloro-4-((1-(methylsulfonyl)indolin-7-yl)amino)pyrimidin-2-yl)amino)-2-fluorophenyl)piperidin-4-yl)piperazin-1-yl)ethyl)phenyl)piperidine-2,6-dione] are 17.3 nM, 9.9 nM, 0.0067 µM and 0.0023 µM.
The corresponding values for `CS(=O)(=O)N1CCc2cccc(Nc3nc(Nc4ccc(N5CCC(N6CCN(CCc7ccc(C8CCC(=O)NC8=O)c(F)c7)CC6)CC5)c5c4OCC5)ncc3Cl)c21` (centres unmarked) [Example 53, 3-(4-(2-(4-(1-(7-((5-chloro-4-((1-(methylsulfonyl)indolin-7-yl)amino)pyrimidin-2-yl)amino)-2,3-dihydrobenzofuran-4-yl)piperidin-4-yl)piperazin-1-yl)ethyl)-2-fluorophenyl)piperidine-2,6-dione] are 35.7 nM, 21.8 nM, 0.0037 µM and 0.0026 µM.
On to `CS(=O)(=O)N1CCc2cccc(Nc3nc(Nc4ccc(N5CCC(N6CCN(CCC7CCN(c8ccc(C9CCC(=O)NC9=O)cc8)CC7)CC6)CC5)c5c4OCC5)ncc3Cl)c21` (centres unmarked) [Example 54, 3-(4-(4-(2-(4-(1-(7-((5-chloro-4-((1-(methylsulfonyl)indolin-7-yl)amino)pyrimidin-2-yl)amino)-2,3-dihydrobenzofuran-4-yl)piperidin-4-yl)piperazin-1-yl)ethyl)piperidin-1-yl)phenyl)piperidine-2,6-dione], for which the DC50 on EGFR LTC is 443 nM; with EGFR DTC it was 120 nM; at EGFR [1], 0.0089 µM; on EGFR [2], 0.0089 µM.
`COc1cc(N2CCN(CCC3CCN(c4ccc(C5CCC(=O)NC5=O)cc4)CC3)CC2)ccc1Nc1ncc(Cl)c(Nc2cccc3c2N(S(C)(=O)=O)CC3)n1` (centres unmarked) [Example 56, 3-(4-(4-(2-(4-(4-((5-chloro-4-((1-(methylsulfonyl)indolin-7-yl)amino)pyrimidin-2-yl)amino)-3-methoxyphenyl)piperazin-1-yl)ethyl)piperidin-1-yl)phenyl)piperidine-2,6-dione]: the DC50 on EGFR LTC was 233 nM; in the experiment on EGFR DTC, 23.6 nM; on EGFR [1], 0.0058 µM; on EGFR [2], 0.0135 µM.

For the origin of these results see patent publication US12643903B2, “Bifunctional compounds for degradation of EGFR and related methods of use” (BeiGene, Ltd., priority 2020, dated 2026).
